Laboratory results published in PubChem BioAssay AID256 (DTP/NCI, 2004).
Several values for one entry are separate records, joined by “and”; a condition that tells them apart may be missing. Equal values may be shown once. Inconclusive results and toxic doses are left out. Rule for the calls: active = survival T/C of 150% or more; inactive = T/C below 125% in these data.

Test system: CD2F1 mice, L1210 leukemia ip, survival T/C
Experiment: NCI In Vivo Anticancer Drug Screen. Data for tumor model L1210 Leukemia (intraperitoneal) in CD2F1 (CDF1) mice
Details: higher = longer survival
In short: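 Compound-dosed mice with transplantable tumor versus matched vehicle controls; endpoint ratio T/C reported.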

[1] = endpoint: mean survival time, dose: 100.0 mg/kg/injection, schedule: Q01DX009 (ip), vehicle: saline with Tween-80
[2] = endpoint: mean survival time, dose: 100.0 mg/kg/injection, schedule: Q04DX003 (ip), vehicle: saline with Tween-80
[3] = endpoint: mean survival time, dose: 200.0 mg/kg/injection, schedule: Q01DX009 (ip), vehicle: saline with Tween-80
[4] = endpoint: mean survival time, dose: 200.0 mg/kg/injection, schedule: Q04DX003 (ip), vehicle: saline with Tween-80
[5] = endpoint: mean survival time, dose: 400.0 mg/kg/injection, schedule: Q04DX003 (ip), vehicle: saline with Tween-80

Measured: T/C

Clc1ccc2nnnn2n1
inactive: endpoint: mean survival time, dose: 12.5 mg/kg/injection, schedule: Q01DX009 (ip), vehicle: saline with Tween-80 105 % of control | endpoint: mean survival time, dose: 25.0 mg/kg/injection, schedule: Q01DX009 (ip), vehicle: saline with Tween-80 113 % of control and 114 % of control | endpoint: mean survival time, dose: 25.0 mg/kg/injection, schedule: Q04DX003 (ip), vehicle: saline with Tween-80 96 % of control | endpoint: mean survival time, dose: 31.75 mg/kg/injection, schedule: Q04DX003 (ip), vehicle: saline with Tween-80 106 % of control | endpoint: mean survival time, dose: 50.0 mg/kg/injection, schedule: Q01DX009 (ip), vehicle: saline with Tween-80 100 % of control and 110 % of control | endpoint: mean survival time, dose: 50.0 mg/kg/injection, schedule: Q04DX003 (ip), vehicle: saline with Tween-80 100 % of control | endpoint: mean survival time, dose: 62.5 mg/kg/injection, schedule: Q04DX003 (ip), vehicle: saline with Tween-80 103 % of control | [1] 114 % of control and 122 % of control | [2] 107 % of control | endpoint: mean survival time, dose: 125.0 mg/kg/injection, schedule: Q04DX003 (ip), vehicle: saline with Tween-80 103 % of control | [3] 100 % of control | [4] 105 % of control | endpoint: mean survival time, dose: 250.0 mg/kg/injection, schedule: Q04DX003 (ip), vehicle: saline with Tween-80 105 % of control | [5] 108 % of control | endpoint: median survival time, dose: 25.0 mg/kg/injection, schedule: Q01DX009 (ip), vehicle: saline with Tween-80 102 % of control and 103 % of control | endpoint: median survival time, dose: 25.0 mg/kg/injection, schedule: Q04DX003 (ip), vehicle: saline with Tween-80 114 % of control | endpoint: median survival time, dose: 50.0 mg/kg/injection, schedule: Q01DX009 (ip), vehicle: saline with Tween-80 113 % of control and 108 % of control | endpoint: median survival time, dose: 50.0 mg/kg/injection, schedule: Q04DX003 (ip), vehicle: saline with Tween-80 112 % of control | endpoint: median survival time, dose: 100.0 mg/kg/injection, schedule: Q01DX009 (ip), vehicle: saline with Tween-80 118 % of control | endpoint: median survival time, dose: 100.0 mg/kg/injection, schedule: Q04DX003 (ip), vehicle: saline with Tween-80 113 % of control | endpoint: median survival time, dose: 200.0 mg/kg/injection, schedule: Q01DX009 (ip), vehicle: saline with Tween-80 117 % of control and 108 % of control | endpoint: median survival time, dose: 200.0 mg/kg/injection, schedule: Q04DX003 (ip), vehicle: saline with Tween-80 110 % of control | endpoint: median survival time, dose: 400.0 mg/kg/injection, schedule: Q04DX003 (ip), vehicle: saline with Tween-80 118 % of control

O/N=c1/ccn(O)c2ccccc12
inactive: endpoint: mean survival time, dose: 0.25 mg/kg/injection, schedule: Q03HX024 (ip), vehicle: saline 104 % of control | endpoint: mean survival time, dose: 0.5 mg/kg/injection, schedule: Q03HX008 (ip), vehicle: saline 112 % of control | endpoint: mean survival time, dose: 0.5 mg/kg/injection, schedule: Q03HX016 (ip), vehicle: saline 104 % of control | endpoint: mean survival time, dose: 0.5 mg/kg/injection, schedule: Q03HX024 (ip), vehicle: saline 116 % of control | endpoint: mean survival time, dose: 1.0 mg/kg/injection, schedule: Q01DX009 (ip), vehicle: saline 123 % of control | endpoint: mean survival time, dose: 1.0 mg/kg/injection, schedule: Q03HX008 (ip), vehicle: saline 113 % of control | endpoint: mean survival time, dose: 1.0 mg/kg/injection, schedule: Q03HX016 (ip), vehicle: saline 113 % of control | endpoint: mean survival time, dose: 2.0 mg/kg/injection, schedule: Q03HX024 (ip), vehicle: saline 123 % of control | endpoint: mean survival time, dose: 16.0 mg/kg/injection, schedule: Q01DX001 (ip), vehicle: saline 124 % of control | endpoint: mean survival time, dose: 16.0 mg/kg/injection, schedule: Q04DX003 (ip), vehicle: saline 96 % of control | endpoint: mean survival time, dose: 16.0 mg/kg/injection, schedule: Q08DX002 (ip), vehicle: saline 109 % of control | endpoint: mean survival time, dose: 32.0 mg/kg/injection, schedule: Q08DX002 (ip), vehicle: saline 88 % of control

Cc1ccc2c(c1)NP(=S)(c1ccccc1)N2 (configuration not stated)
inactive: [1] 91 % of control | [3] 86 % of control | endpoint: mean survival time, dose: 400.0 mg/kg/injection, schedule: Q01DX009 (ip), vehicle: saline with Tween-80 94 % of control

O=C1c2ccccc2C(=O)N1CNc1cccc(NCN2C(=O)c3ccccc3C2=O)n1
inactive: [2] 104 % of control | [4] 106 % of control | [5] 90 % of control

O=C1c2ccccc2C(=O)N1CC(O)COc1ccccc1[N+](=O)[O-] (configuration not stated)
inactive: endpoint: mean survival time, dose: 100.0 mg/kg/injection, schedule: Q04DX002 (ip), vehicle: saline with Tween-80 88 % of control | endpoint: mean survival time, dose: 200.0 mg/kg/injection, schedule: Q04DX002 (ip), vehicle: saline with Tween-80 100 % of control

C=CCOC(=O)CCCCCCCCC(=O)OCC=C
inactive: [1] 97 % of control | [2] 96 % of control | [3] 95 % of control | [4] 94 % of control
